Source: patent publication US20240158394A1, “NEK7 INHIBITORS” (Halia Therapeutics, Inc., priority 2022, published 2024)

Molecular target: full-length recombinant human NEK7 (Homo sapiens (Human), UniProt Q8TDX7)
Test: NEK7 Enzymatic Assay
Type: biochemical
Conditions: casein substrate, [33P]-ATP, 2 hours at room temperature
Description: Casein substrate (from bovine milk, hydrolyzed and partially dephosphorylated mixture of α, β and κ caseins, obtained from Sigma Aldrich, catalogue #C4765, diluted in distilled water to a final concentration of 1 mg/mL) and full-length recombinant human NEK7 (expressed by baculovirus in Sf9 insect cells using a N-terminal GST tag, obtained from SignalChem, catalogue #N09-10G, 0.1 μg/μL) were mixed in assay buffer (20 mM HEPES pH 7.5, 10 mM MgCl2, 1 mM EGTA, 0.02% Brij35, 0.02 mg/mL BSA, 0.1 mM Na3VO4, 2 mM DTT, 1% DMSO). Compounds of interest (serial 3-fold dilution in DMSO from 10 μM to 0.5 nM) or vehicle (1% DMSO) were dispensed into the kinase reaction mixture by Acoustic technology (Echo550; nanoliter range). After incubation at room temperature for 20 minutes, the kinase reaction was initiated by addition of [^33P]-ATP (specific activity 10 μCi/μL) and the mixture was incubated at room temperature for 2 hours. The reaction was then stopped by spotting the reaction mixture on strips of phosphocellulose P81 paper. Following washing, the radioactivity of the P81 paper was measured and kinase activity data were expressed as the percent remaining kinase activity in test samples compared to vehicle reactions. IC50 values and curve fits were obtained using Prism (GraphPad Software).

full-length recombinant human NEK7, sequence (Q8TDX7 whole entry): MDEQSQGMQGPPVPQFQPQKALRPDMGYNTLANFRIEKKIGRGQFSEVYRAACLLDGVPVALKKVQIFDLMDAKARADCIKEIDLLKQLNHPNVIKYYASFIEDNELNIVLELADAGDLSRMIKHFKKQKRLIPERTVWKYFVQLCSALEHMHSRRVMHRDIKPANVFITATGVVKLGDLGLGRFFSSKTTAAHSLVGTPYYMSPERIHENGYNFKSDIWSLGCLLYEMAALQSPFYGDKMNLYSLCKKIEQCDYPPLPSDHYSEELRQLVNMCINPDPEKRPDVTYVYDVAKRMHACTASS

| Compound | IC50 [nM] |
| --- | --- |
| CN1CCN(Cc2ccc(NC(=O)Nc3ccc(-c4cn(CC(C)(C)O)c5ncnc(N)c45)n4ccnc34)cc2C(F)(F)F)CC1 [Example I-131, 1-(5-(4-amino-7-(2-hydroxy-2-methylpropyl)-7H-pyrrolo[2,3-d]pyrimidin-5-yl)imidazo[1,2-a]pyridin-8-yl)-3-(4-((4-meth-ylpiperazin-1-yl)methyl)-3-(trifluoromethyl)phenyl)urea] | < 200 |
| CN1CCC(n2cc(-c3ccc(NC(=O)Nc4cc(C5(C(F)(F)F)CC5)on4)c4nccn34)c3c(N)ncnc32)CC1 [Example I-95, 1-(5-(4-amino-7-(1-methyl-piperidin-4-yl)-7H-pyrrolo-[2,3-d]pyrimidin-5-yl)imid-azo[1,2-a]pyridin-8-yl)-3-(5-(1-(trifluoromethyl)cyclo-propyl)isoxazol-3-yl)urea] | 200 to 500 |
| Nc1ncnc2c1c(-c1ccc(NC(=O)Nc3ccc(CN4CCN(CCF)CC4)c(C(F)(F)F)c3)c3nccn13)cn2C1CC1 [Example I-41, 1-(5-(4-amino-7-cyclopropyl-7H-pyrrolo[2,3-d]pyrimidin-5-yl)imidazo[1,2-a]pyridin-8-yl)-3-(4-((4-(2-fluoroethyl)-piperazin-1-yl)methyl)-3-(trifluoromethyl)phenyl)urea] | < 200 |
| Nc1ncnc2c1c(-c1ccc(NC(=O)Nc3cc(C4(C(F)(F)F)CC4)on3)c3nccn13)cn2C1CCC1 [Example I-84, 1-(5-(4-amino-7-cyclobutyl-7H-pyrrolo[2,3-d]pyrimidin-5-yl)imidazo[1,2-a]pyridin-8-yl)-3-(5-(1-(trifluoromethyl)-cyclopropyl)isoxazol-3-yl)urea] | < 200 |
| CC(C)(c1cc(NC(=O)Nc2ccc(-c3cn(C4CC4)c4ncnc(N)c34)n3ccnc23)on1)C(F)(F)F [Example I-21, 1-(5-(4-amino-7-cyclopropyl-7H-pyrrolo[2,3-d]pyrimidin-5-yl)imidazo[1,2-a]pyridin-8-yl)-3-(3-(1,1,1-trifluoro-2-methylpropan-2-yl)isoxazol-5-yl)urea] | < 200 |
| CC1(C)Cc2c(-c3cn(C4CC4)c4ncnc(N)c34)ccc(NC(=O)Nc3cc(C4(C(F)(F)F)CC4)on3)c2O1 [Example I-59, 1-(4-(4-amino-7-cyclopropyl-7H-pyrrolo[2,3-d]pyrimidin-5-yl)-2,2-dimethyl-2,3-dihydrobenzofuran-7-yl)-3-(5-(1-(trifluoromethyl)cyclo-propyl)isoxazol-3-yl)urea] | 200 to 500 |
| CN1CCN(Cc2cc(NC(=O)Nc3ccc(-c4cn(C5CC5)c5ncnc(N)c45)n4ccnc34)cc(C(F)(F)F)c2)CC1 [Example I-36, 1-(5-(4-amino-7-cyclopropyl-7H-pyrrolo[2,3-d]pyrimidin-5-yl)imidazo[1,2-a]pyridin-8-yl)-3-(3-((4-methylpiperazin-1-yl)methyl)-5-(trifluorometh-yl)phenyl)urea] | < 200 |
| Nc1ncnc2c1c(-c1ccc(NC(=O)Nc3cc(C4(C(F)(F)F)CC4)no3)c3ncccc13)cn2C1CC1 [Example I-3, 1-(5-(4-amino-7-cyclopropyl-7H-pyrrolo[2,3-d]pyrimidin-5-yl)quinolin-8-yl)-3-(3-(1-(trifluoromethyl)cyclopropyl)-isoxazol-5-yl)urea] | > 2000 |
| Nc1ncnc2c1c(-c1ccc(NC(=O)Nc3cc(C4(C(F)(F)F)CCC4)no3)c3nccn13)cn2C1CC1 [Example I-23, 1-(5-(4-amino-7-cyclopropyl-7H-pyrrolo[2,3-d]pyrimidin-5-yl)imidazo[1,2-a]pyridin-8-yl)-3-(3-(1-(trifluoromethyl)-cyclobutyl)isoxazol-5-yl)urea] | < 200 |
| CC(C)n1cc(-c2ccc(NC(=O)Nc3ccc(CN4CCN(C)CC4)c(C(F)(F)F)c3)c3nccn23)c2c(N)ncnc21 [Example I-128, 1-(5-(4-amino-7-isopropyl-7H-pyrrolo[2,3-d]pyrimidin-5-yl)imidazo[1,2-a]pyridin-8-yl)-3-(4-((4-methylpiperazin-1-yl)methyl)-3-(trifluorometh-yl)phenyl)urea] | < 200 |
| CC(C)(C)c1cc(NC(=O)Nc2ccc(-c3cn(C4CC4)c4ncnc(N)c34)c3ccncc23)on1 [Example I-5, 1-(5-(4-amino-7-cyclopropyl-7H-pyrrolo[2,3-d]pyrimidin-5-yl)isoquinolin-8-yl)-3-(3-(tert-butyl)isoxazol-5-yl)urea] | < 200 |
| CN1CCN(Cc2ccc(NC(=O)Nc3ccc(-c4cn(CCO)c5ncnc(N)c45)n4ccnc34)cc2C(F)(F)F)CC1 [Example I-130, 1-(5-(4-amino-7-(2-hydroxy-ethyl)-7H-pyrrolo[2,3-d]pyr-imidin-5-yl)imidazo[1,2-a]-pyridin-8-yl)-3-(4-((4-meth-ylpiperazin-1-yl)methyl)-3-(trifluoromethyl)phenyl)urea] | < 200 |
| CCN1CCC(Oc2ccc(NC(=O)Nc3ccc(-c4cn(C5CCC5)c5ncnc(N)c45)n4ccnc34)cc2C(F)(F)F)CC1 [Example I-137, 1-(5-(4-amino-7-cyclobutyl-7H-pyrrolo[2,3-d]pyrimidin-5-yl)imidazo[1,2-a]pyridin-8-yl)-3-(4-((1-ethylpiperidin-4-yl)oxy)-3-(trifluoromethyl)-phenyl)urea] | < 200 |
| CC1(c2cc(NC(=O)Nc3ccc(-c4cn(C5CC5)c5ncnc(N)c45)n4ccnc34)on2)CC1 [Example I-18, 1-(5-(4-amino-7-cyclopropyl-7H-pyrrolo[2,3-d]pyrimidin-5-yl)imidazo[1,2-a]pyridin-8-yl)-3-(3-(1-methylcyclo-propyl)isoxazol-5-yl)urea] | < 200 |
| CCN1CCC(Oc2ccc(NC(=O)Nc3ccc(-c4cn(C5CC5)c5ncnc(N)c45)c4cnoc34)cc2C(F)(F)F)CC1 [Example I-125, 1-(4-(4-amino-7-cyclopropyl-7H-pyrrolo[2,3-d]pyrimidin-5-yl)benzo[d]isoxazol-7-yl)-3-(4-((1-ethylpiperidin-4-yl)oxy)-3-(trifluoromethyl)phenyl)urea] | 200 to 500 |
| Cc1cc(NC(=O)Nc2ccc(-c3cn(C4CC4)c4ncnc(N)c34)n3ccnc23)no1 [Example I-24, 1-(5-(4-amino-7-cyclopropyl-7H-pyrrolo[2,3-d]pyrimidin-5-yl)imidazo[1,2-a]pyridin-8-yl)-3-(5-methylisoxazol-3-yl)urea] | > 2000 |
| Nc1ncnc2c1c(-c1ccc(NC(=O)Nc3cc(C4(C(F)(F)F)CC4)on3)c3nccn13)cn2C1CCNCC1 [Example I-94, 1-(5-(4-amino-7-(piperidin-4-yl)-7H-pyrrolo[2,3-d]pyr-imidin-5-yl)imidazo[1,2-a]-pyridin-8-yl)-3-(5-(1-(trifluoro-methyl)cyclopropyl)isoxazol-3-yl)urea] | < 200 |
| Nc1ncnc2c1c(-c1ccc(NC(=O)Nc3cc(C4(C(F)(F)F)CC4)on3)c3nccn13)cn2CCO [Example I-85, 1-(5-(4-amino-7-(2-hydroxy-ethyl)-7H-pyrrolo[2,3-d]pyr-imidin-5-yl)imidazo[1,2-a]-pyridin-8-yl)-3-(5-(1-(tri-fluoromethyl)cyclopropyl)-isoxazol-3-yl)urea] | < 200 |
| CN1CCN(Cc2ccc(NC(=O)Nc3ccc(-c4cn(C5CC5)c5ncnc(N)c45)c4c3OC(C)(C)C4)cc2C(F)(F)F)CC1 [Example I-60, 1-(4-(4-amino-7-cyclopropyl-7H-pyrrolo[2,3-d]pyrimidin-5-yl)-2,2-dimethyl-2,3-dihydrobenzofuran-7-yl)-3-(4-((4-methylpiperazin-1-yl)-methyl)-3-(trifluoromethyl)-phenyl)urea] | > 2000 |
| CC(C)(F)c1cc(NC(=O)Nc2ccc(-c3cn(C4CC4)c4ncnc(N)c34)n3ccnc23)on1 [Example I-20, 1-(5-(4-amino-7-cyclopropyl-7H-pyrrolo[2,3-d]pyrimidin-5-yl)imidazo[1,2-a]pyridin-8-yl)-3-(3-(2-fluoropropan-2-yl)isoxazol-5-yl)urea] | < 200 |
| Cc1cc(NC(=O)Nc2ccc(-c3cn(C4CC4)c4ncnc(N)c34)n3ccnc23)on1 [Example I-14, 1-(5-(4-amino-7-cyclopropyl-7H-pyrrolo[2,3-d]pyrimidin-5-yl)imidazo[1,2-a]pyridin-8-yl)-3-(3-methylisoxazol-5-yl)-urea] | > 2000 |
| Nc1ncnc2c1c(-c1cnc(NC(=O)Nc3cc(C4(C(F)(F)F)CC4)on3)c3nccn13)cn2C1CC1 [Example I-50, 1-(5-(4-amino-7-cyclopropyl-7H-pyrrolo[2,3-d]pyrimidin-5-yl)imidazo[1,2-a]pyrazin-8-yl)-3-(5-(1-(trifluoromethyl)-cyclopropyl)isoxazol-3-yl)urea] | > 2000 |
| Nc1ncnc2c1c(-c1ccc(NC(=O)Nc3cc(C4CC4)no3)c3nccn13)cn2C1CC1 [Example I-119, 1-(5-(4-amino-7-cyclopropyl-7H-pyrrolo[2,3-d]pyrimidin-5-yl)imidazo[1,2-a]pyridin-8-yl)-3-(3-cyclopropylisoxazol-5-yl)urea] | 200 to 500 |
| CC(C)n1cc(-c2ccc(NC(=O)Nc3cc(C4(C(F)(F)F)CC4)on3)c3nccn23)c2c(N)ncnc21 [Example I-83, 1-(5-(4-amino-7-isopropyl-7H-pyrrolo[2,3-d]pyrimidin-5-yl)imidazo[1,2-a]pyridin-8-yl)-3-(5-(1-(trifluorometh-yl)cyclopropyl)isoxazol-3-yl)-urea] | < 200 |
